Data: PMC4486055 (Cancer chemotherapy and pharmacology, 2014)
Entries after “also recorded” stand apart in the source; their conditions may differ. Where two headings read alike, the source gives them in different places.

Assays:
[1] = clinical development; cited from earlier work
[2] = system: advanced solid tumors; test: Tumor assessments according to RECIST version 1.0; assay type: in vivo, human; details: of 38 evaluable; AZD7762 plus gemcitabine
[3] = system: pChk1ser345 and pH2AX; assay type: in vivo, human
[4] = system: patients with advanced solid tumors; details: for Serious AE possibly related to AZD7762: one patient
[5] = system: Japanese patients; details: in combination with gemcitabine, bradycardia, hypertension, DLT troponin T increase; cited from earlier work
[6] = Single-dose pharmacokinetics of AZD7762 in plasma and urine
[7] = AZD7762 6 mg/gemcitabine 750 mg/m^2, 3x/cycle, n=6
[8] = AZD7762 6 mg/gemcitabine 1,000 mg/m^2, 2x/cycle, n=2
[9] = AZD7762 6 mg/gemcitabine 1,000 mg/m^2, 3x/cycle, n=1
[10] = AZD7762 9 mg/gemcitabine 1,000 mg/m^2, n=3
[11] = AZD7762 14 mg/gemcitabine 1,000 mg/m^2, n=6
[12] = AZD7762 21 mg/gemcitabine 1,000 mg/m^2, n=3
[13] = AZD7762 30 mg/gemcitabine 1,000 mg/m^2, n=7
[14] = AZD7762 32 mg/gemcitabine 1,000 mg/m^2, n=6
[15] = AZD7762 40 mg/gemcitabine 1,000 mg/m^2, n=8
[16] = all doses, overall, 11/42 patients
[17] = cycle 0 (AZD7762 alone), 6/42 patients
[18] = cycle 1 onwards, AZD7762 6 mg plus gemcitabine 1,000 mg/m^2, 3x/cycle, n=1

CN[C@@H]1C[C@H]2O[C@@](C)([C@@H]1OC)n1c3ccccc3c3c4c(c5c6ccccc6n2c5c31)C(=O)N[C@H]4O [UCN-01, 7-hydroxyl-staurosporine]
Dose-limiting toxicity [1]: prominent dose-limiting hyperglycemia

NC(=O)Nc1cc(-c2cccc(F)c2)sc1C(=O)N[C@H]1CCCNC1 [AZD7762]
Best response stable disease for ≥6–<12 weeks, patients [2]: five | Disease progression as best response, patients [2]: 20 patients | Stable disease for ≥12 weeks, patients [2]: four | Change in staining of pChk1ser345 and pH2AX ([3]; 32 mg cohort, AZD7762 after gemcitabine): small increases in staining | H-scores for both biomarkers (out of 12) ([3]; hair follicles from skin biopsies, pChk1ser345 and pH2AX): 0–3 | Change in staining of pChk1ser345 and pH2AX ([3]; other dose cohorts): no increased staining | Blood ALP increased, number of patients (%) [4, 7]: 0 patients (%) | Constipation, number of patients (%) [4, 7]: 2 (33) patients (%) | Decreased appetite, number of patients (%) [4, 7]: 2 (33) patients (%) | Dehydration, number of patients (%) [4, 7]: 2 (33) patients (%) | Diarrhea, number of patients (%) [4, 7]: 0 patients (%) | Neutropenia/leukopenia, number of patients (%) [4, 7]: 0 patients (%) | Thrombocytopenia, number of patients (%) [4, 7]: 2 (33) patients (%) | Vomiting, number of patients (%) [4, 7]: 2 (33) patients (%) | Decreased appetite, number of patients (%) [4, 8]: 0 patients (%) | Diarrhea, number of patients (%) [4, 8]: 0 patients (%) | Headache, number of patients (%) [4, 8]: 0 patients (%) | Nausea, number of patients (%) [4, 8]: 0 patients (%) | Neutropenia/leukopenia, number of patients (%) [4, 8]: 0 patients (%) | Thrombocytopenia, number of patients (%) [4, 8]: 0 patients (%) | ALT/AST increased, number of patients (%) [4, 9]: 0 patients (%) | Blood ALP increased, number of patients (%) [4, 9]: 0 patients (%) | Constipation, number of patients (%) [4, 9]: 0 patients (%) | Decreased appetite, number of patients (%) [4, 9]: 0 patients (%) | Dehydration, number of patients (%) [4, 9]: 0 patients (%) | Headache, number of patients (%) [4, 9]: 0 patients (%) | Thrombocytopenia, number of patients (%) [4, 9]: 0 patients (%) | ALT/AST increased, number of patients (%) [4, 10]: 0 patients (%) | Anemia/Hb decreased, number of patients (%) [4, 10]: 1 (33) patients (%) | Blood ALP increased, number of patients (%) [4, 10]: 0 patients (%) | Constipation, number of patients (%) [4, 10]: 1 (33) patients (%) | Decreased appetite, number of patients (%) [4, 10]: 0 patients (%) | Dehydration, number of patients (%) [4, 10]: 1 (33) patients (%) | Diarrhea, number of patients (%) [4, 10]: 1 (33) patients (%) | Fatigue, number of patients (%) [4, 10]: 1 (33) patients (%) | Nausea, number of patients (%) [4, 10]: 1 (33) patients (%) | Neutropenia/leukopenia, number of patients (%) [4, 10]: 0 patients (%) | Thrombocytopenia, number of patients (%) [4, 10]: 1 (33) patients (%) | Vomiting, number of patients (%) [4, 10]: 0 patients (%) | ALT/AST increased, number of patients (%) [4, 11]: 0 patients (%) | Anemia/Hb decreased, number of patients (%) [4, 11]: 0 patients (%) | Blood ALP increased, number of patients (%) [4, 11]: 0 patients (%) | Constipation, number of patients (%) [4, 11]: 2 (33) patients (%) | Dehydration, number of patients (%) [4, 11]: 0 patients (%) | Headache, number of patients (%) [4, 11]: 0 patients (%) | Neutropenia/leukopenia, number of patients (%) [4, 11]: 2 (33) patients (%) | ALT/AST increased, number of patients (%) [4, 12]: 0 patients (%) | Anemia/Hb decreased, number of patients (%) [4, 12]: 0 patients (%) | Blood ALP increased, number of patients (%) [4, 12]: 0 patients (%) | Constipation, number of patients (%) [4, 12]: 0 patients (%) | Dehydration, number of patients (%) [4, 12]: 1 (33) patients (%) | Diarrhea, number of patients (%) [4, 12]: 0 patients (%) | Headache, number of patients (%) [4, 12]: 0 patients (%) | Nausea, number of patients (%) [4, 12]: 1 (33) patients (%) | Neutropenia/leukopenia, number of patients (%) [4, 12]: 0 patients (%) | Pyrexia, number of patients (%) [4, 12]: 0 patients (%) | Thrombocytopenia, number of patients (%) [4, 12]: 0 patients (%) | Vomiting, number of patients (%) [4, 12]: 1 (33) patients (%) | Constipation, number of patients (%) [4, 13]: 1 (14) patients (%) | Decreased appetite, number of patients (%) [4, 13]: 0 patients (%) | Dehydration, number of patients (%) [4, 13]: 0 patients (%) | Fatigue, number of patients (%) [4, 13]: 0 patients (%) | Headache, number of patients (%) [4, 13]: 0 patients (%) | Nausea, number of patients (%) [4, 13]: 1 (14) patients (%) | Pyrexia, number of patients (%) [4, 13]: 0 patients (%) | Thrombocytopenia, number of patients (%) [4, 13]: 0 patients (%) | ALT/AST increased, number of patients (%) [4, 14]: 0 patients (%) | Blood ALP increased, number of patients (%) [4, 14]: 0 patients (%) | Constipation, number of patients (%) [4, 14]: 0 patients (%) | Decreased appetite, number of patients (%) [4, 14]: 2 (33) patients (%) | Diarrhea, number of patients (%) [4, 14]: 2 (33) patients (%) | Anemia/Hb decreased, number of patients (%) [4, 15]: 2 (25) patients (%) | Decreased appetite, number of patients (%) [4, 15]: 0 patients (%) | Dehydration, number of patients (%) [4, 15]: 0 patients (%) | Fatigue, number of patients (%) [4, 15]: 2 (25) patients (%) | Headache, number of patients (%) [4, 15]: 0 patients (%) | Nausea, number of patients (%) [4, 15]: 2 (25) patients (%) | Pyrexia, number of patients (%) [4, 15]: 2 (25) patients (%) | Thrombocytopenia, number of patients (%) [4, 15]: 2 (25) patients (%) | ALT/AST increase, patients with AE overall [4, 16]: 26% | Nausea, patients with AE overall [4, 16]: 26% | Pyrexia, patients with AE overall [4, 16]: 26% | Anemia/Hb decrease, patients with AE overall ([4]; all doses, overall, 12/42 patients): 29% | Neutropenia/leukopenia, patients with AE overall ([4]; all doses, overall, 15/42 patients): 36% | Fatigue, patients with AE overall ([4]; all doses, overall, 17/42 patients): 41% | ALT/AST increased, number of patients (%) ([4]; all doses, total n=42): 11 (26) patients (%) | Dehydration, number of patients (%) ([4]; all doses, total n=42): 6 (14) patients (%) | Nausea, number of patients (%) ([4]; all doses, total n=42): 11 (26) patients (%) | Pyrexia, number of patients (%) ([4]; all doses, total n=42): 11 (26) patients (%) | Nausea, patients with AE ([4]; cycle 0 (AZD7762 alone), 5/42 patients): 12% | Fatigue, patients with AE [4, 17]: 14% | Vomiting, patients with AE [4, 17]: 14% | AEs of CTCAE grade ≥3, patients ([4]; cycle 0 (AZD7762 alone), 8/42 patients): 19% | Adverse events grade ≥3, patients ([4]; cycle 0, AZD7762 monotherapy 6 mg (6/750 cohort, 3x/cycle, n=6)): 2 (33) n (%) | Adverse events grade ≥3, patients ([4]; cycle 0, AZD7762 monotherapy 6 mg (6/1,000 cohort, 2x/cycle, n=2)): 0 n (%) | Adverse events grade ≥3, patients ([4]; cycle 0, AZD7762 monotherapy 6 mg (6/1,000 cohort, 3x/cycle, n=1)): 0 n (%) | Adverse events grade ≥3, patients ([4]; cycle 0, AZD7762 monotherapy 9 mg, n=3): 0 n (%) | Adverse events grade ≥3, patients ([4]; cycle 0, AZD7762 monotherapy 14 mg, n=6): 0 n (%) | Adverse events grade ≥3, patients ([4]; cycle 0, AZD7762 monotherapy 21 mg, n=3): 0 n (%) | Adverse events grade ≥3, patients ([4]; cycle 0, AZD7762 monotherapy 30 mg, n=7): 0 n (%) | Adverse events grade ≥3, patients ([4]; cycle 0, AZD7762 monotherapy 32 mg, n=6): 3 (50) n (%) | Grade ≥3 adverse events, term ([4]; cycle 0, AZD7762 monotherapy 32 mg, n=6, n=1 per term unless stated): Hyponatremia Peripheral neuropathy Troponin I increased | Adverse events grade ≥3, patients ([4]; cycle 0, AZD7762 monotherapy 40 mg, n=8): 3 (38) n (%) | Grade ≥3 adverse events, term ([4]; cycle 0, AZD7762 monotherapy 40 mg, n=8, n=1 per term unless stated): Device-related infection Myocardial ischemia Hyperglycemia | AEs of CTCAE grade ≥3, patients ([4]; cycle 1 (AZD7762 in combination with gemcitabine), 22/42 patients): 52% | Non-cardiac dose-limiting toxicity ([4]; cycle 1, one patient at AZD7762 32 mg with gemcitabine 1,000 mg/m^2): grade 3 nausea/vomiting for 2 days | Non-cardiac dose-limiting toxicity ([4]; cycle 1, one patient at AZD7762 40 mg with gemcitabine 1,000 mg/m^2): grade 4 neutropenia complicated by ≥38.5 °C fever for 2 days | Adverse events grade ≥3, patients ([4]; cycle 1 onwards, AZD7762 6 mg plus gemcitabine 750 mg/m^2, 3x/cycle, n=6): 5 (83) n (%) | Adverse events grade ≥3, patients ([4]; cycle 1 onwards, AZD7762 6 mg plus gemcitabine 1,000 mg/m^2, 2x/cycle, n=2): 1 (50) n (%) | Adverse events grade ≥3, patients [4, 18]: 1 (100) n (%) | Grade ≥3 adverse events, term [4, 18]: Neutropenia (n = 2) | Adverse events grade ≥3, patients ([4]; cycle 1 onwards, AZD7762 9 mg plus gemcitabine 1,000 mg/m^2, n=3): 1 (33) n (%) | Grade ≥3 adverse events, term ([4]; cycle 1 onwards, AZD7762 9 mg plus gemcitabine 1,000 mg/m^2, n=3, n=1 per term): Thrombocytopenia | Adverse events grade ≥3, patients ([4]; cycle 1 onwards, AZD7762 14 mg plus gemcitabine 1,000 mg/m^2, n=6): 2 (33) n (%) | Adverse events grade ≥3, patients ([4]; cycle 1 onwards, AZD7762 21 mg plus gemcitabine 1,000 mg/m^2, n=3): 1 (33) n (%) | Grade ≥3 adverse events, term ([4]; cycle 1 onwards, AZD7762 21 mg plus gemcitabine 1,000 mg/m^2, n=3, n=1 per term): Atrial thrombosis Febrile neutropenia | Adverse events grade ≥3, patients ([4]; cycle 1 onwards, AZD7762 30 mg plus gemcitabine 1,000 mg/m^2, n=7): 4 (57) n (%) | Adverse events grade ≥3, patients ([4]; cycle 1 onwards, AZD7762 32 mg plus gemcitabine 1,000 mg/m^2, n=6): 3 (50) n (%) | Grade ≥3 adverse events, term ([4]; cycle 1 onwards, AZD7762 32 mg plus gemcitabine 1,000 mg/m^2, n=6, n=1 per term): Neutropenia Flank pain Nausea Vomiting | Adverse events grade ≥3, patients ([4]; cycle 1 onwards, AZD7762 40 mg plus gemcitabine 1,000 mg/m^2, n=8): 4 (50) n (%) | Adverse events grade ≥3, patients ([4]; cycle 1 onwards, AZD7762 plus gemcitabine, all doses, total n=42): 22 (52) n (%) | Serious AE possibly related to AZD7762 ([4]; AZD7762 30 mg group, also judged causally related to gemcitabine): grade 3 chest pain | Serious AE possibly related to AZD7762 ([4]; AZD7762 40 mg group, also recorded as a DLT): grade 3 myocardial ischemia | Dose escalation limit due to cardiac AEs [5]: did not support dose escalation beyond 21 mg | Peak plasma concentration ([6]; 30 mg dose): 291 ng/mL | Unchanged drug excreted in the urine ([6]; first 48 h post-dosing, across all dose levels): 11–20% | AZD7762 exposure (Cmax, C24 h, and AUC) versus dose ([6]; over the dose range studied): increased linearly; also recorded: increased in a dose-proportional manner
